Results taken from US8389544B2, “Isoquinolone compounds as subtype-selective agonists for melatonin receptors MT1 and MT2” (The Hong Kong University of Science and Technology, priority 2007, dated 2013).

Target: T1, MT2 receptor (Homo sapiens, UniProt P49286)
T1 sequence (P49286 1-362): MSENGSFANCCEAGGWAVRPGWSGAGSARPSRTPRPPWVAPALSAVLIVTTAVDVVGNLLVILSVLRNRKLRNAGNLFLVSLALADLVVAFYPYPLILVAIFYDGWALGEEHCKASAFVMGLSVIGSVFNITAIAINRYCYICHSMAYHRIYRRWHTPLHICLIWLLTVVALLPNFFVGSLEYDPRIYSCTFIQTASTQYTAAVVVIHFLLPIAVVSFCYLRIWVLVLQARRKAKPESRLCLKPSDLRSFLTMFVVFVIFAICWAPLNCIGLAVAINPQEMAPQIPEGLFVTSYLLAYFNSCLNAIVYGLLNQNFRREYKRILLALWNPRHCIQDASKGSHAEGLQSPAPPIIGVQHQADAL
Assay: CRE-Luc (luciferase reporter gene) assay, MT2
Assay type: cell-based
Set-up: expressed in transfected cells
Details: HEK 293-pCREluc cells with MT2; inhibition of forskolin response
Experimental: The luciferase reporter gene assay offers another way to measure melatonin receptor activation. Cells expressing cAMP-responsive element-driven luciferase reporter gene (293-pCREluc) and either the MT1 or MT2 receptor are treated with forskolin (a substance which stimulates cAMP production as well as the subsequent luciferase gene expression) alone or with a novel isoquinolone compound. As melatonin receptor activation inhibits cAMP production, any suppression in the expression of luciferase leads to a decrease in enzymatic activities and a reduction in the amount of luminescence signal generated.
The luciferase assay, a reporter gene assay, was performed to confirm the ability of the invention to activate the melatonin receptors. Prior to the assay, HEK (human embryonic kidney) 293 cells are stably transfected with cAMP-responsive element-driven luciferase reporter gene (293-pCREluc) and cDNAs encoding MT1 or MT2 receptors. The cells are then exposed to the novel isoquinolone compounds, after which the substrate luciferin is added and the resulting luminescence measured.
Prior to the assay human embryonic kidney (HEK) 293 cells (CRL-1573, ATCC) is maintained at 37° C. in minimum essential medium (MEM) supplemented with 10% fetal bovine serum (FBS), 100 units/ml penicillin and 100 μg/ml streptomycin in a humidified atmosphere containing 5% CO2. Human embryonic kidney 293 cells stably transfected with cAMP-responsive element-driven luciferase reporter gene (293-pCREluc) are established and maintained in growth medium supplemented with 300 μg/ml G418 sulphate.
For luciferase assays, HEK-293 cells stably expressing pCRE-luciferase are seeded at a density of 15,000 cells/well into 96 well plates. Transfection is carried out using Lipofectamine Plus® reagent at 0.2 μl of both Plus and lipofectamine reagents with 50 ng cDNAs encoding MT1 or MT2 receptors per well. After a 3 hour transfection period at 37° C., 50 μl of DMEM with 20% fetal calf serum (FCS) is added into the wells and the plate is incubated at 37° C. for 48 h prior to 24 hour serum starvation. […]
Cells are harvested by replacing medium in the well by 50 μl luciferase lysis buffer. The Berthold microplate luminometer is maintained at 25° C. throughout the assay. Injector M connected to an empty tube and P connected to the drug tube are set to inject 25 μl of luciferin into appropriate wells. A 1.6 second delay time followed by a 1 second measuring time period is assigned to injector M, whereas injector P is measured for 10 seconds after luciferase substrate is introduced into the well. Results are expressed as relative luminescent units (RLU). Where indicated, agonist-induced activity is expressed as a percentage of the RLU obtained with forskolin.

SMILES | CRE-Luc Assay MT2 % Inh ± SEM of 1 μM Fsk [%]
Cn1ccc2cc(OC(=O)c3ccccc3)c(OC(=O)c3ccccc3)cc2c1=O [IS039] | 69.8 ± 7.2
COc1cc(COc2cc3ccn(C)c(=O)c3cc2OC)cc(OC)c1 [IS042] | 71.3 ± 8.8
COc1cccc(COc2cc3ccn(C)c(=O)c3cc2OC)c1 [IS044] | 73.9 ± 12.4
COc1cccc(COc2cc3c(=O)n(C)ccc3cc2OC)c1 [IS521] | 70.2 ± 9.2
COc1cc(COc2cc3c(=O)n(C)ccc3cc2OC)cc(OC)c1 [IS523] | 71.6 ± 16.3
COc1cc2ccn(C)c(=O)c2cc1OCc1ccc(C(C)(C)C)cc1 [IS526] | 17.8 ± 4.7
COc1cccc(COc2c(OC)ccc3c(=O)n(C)ccc23)c1 [IS527] | 61.0 ± 9.3
COc1cc(COc2c(OC)ccc3c(=O)n(C)ccc23)cc(OC)c1 [IS528] | 60.8 ± 8.5
COc1ccc2c(=O)n(C)ccc2c1OCc1ccc(C)cc1 [IS529] | 61.3 ± 13.1
